ChEMBL document CHEMBL5390280, “Design, Synthesis, and Biological Evaluation of an Orally Bioavailable, Potent, and Selective ROCK2 Inhibitor for Psoriasis Treatment” (J Med Chem, 2023)
In brackets after ≈: the same amount, converted by molar mass. Activity calls are given as the source filed them. The calls are words filed in the database; no cut-off is given here.

What was measured:
[1] = biological target: Rho-associated protein kinase 2 (Homo sapiens, UniProt O75116); assay: Inhibition of ROCK2 (unknown origin) by HTRF assay
Mus musculus [2] = assay: In vivo inhibition of ROCK2 in Balb/c mouse model of IMQ-induced skin inflammation assessed as decrease in pSTAT5+ cells in dorsal skin at 20 to 80 mg/kg, po administered daily for 7 days by high power field microscopy; assay type: functional, organism-based; conditions: dose 20-80 mg/kg, time 7.0 day
Mus musculus [3] = assay: In vivo inhibition of ROCK2 in Balb/c mouse model of IMQ-induced skin inflammation assessed as decrease in pSTAT3+ cells in dorsal skin at 20 to 80 mg/kg, po administered daily for 7 days by high power field microscopy; assay type: functional, organism-based; conditions: dose 20-80 mg/kg, time 7.0 day
Mus musculus [4] = assay: Anti-inflammatory activity in Balb/c mouse model of IMQ-induced skin inflammation assessed as decrease in IL-17A+ T cells in dorsal skin administered orally daily for 7 days by high power field microscopy; assay type: functional, organism-based; conditions: T-cell, dose 20-80 mg/kg, route po, time 7.0 day
[5] = biological target: Rho-associated protein kinase 1 (Homo sapiens, UniProt Q13464); assay: Inhibition of ROCK1 (unknown origin) by HTRF assay
[6] = Selectivity ratio of IC50 for ROCK1 (unknown origin) to IC50 for ROCK2 (unknown origin)
[7] = Lipophilicity, log D of the compound at pH 7.4; assay type: physicochemical; conditions: buffer
[8] = Solubility in aqueous buffer at pH 7.4; assay type: physicochemical
[9] = AUC (0 to t) in Balb/c mouse at 10 mg/kg, iv measured for 0.08 to 24 hrs by LC-MS/MS analysis; assay type: ADME, organism-based; design: time upper 24 hrs, time lower 0.08 hrs, dose 10 mg/kg, route iv; conditions: in vivo
[10] = AUC (0 to infinity) in Balb/c mouse at 10 mg/kg, iv measured for 0.08 to 24 hrs by LC-MS/MS analysis; assay type: ADME, organism-based; design: dose 10 mg/kg, time upper 24 hrs, time lower 0.08 hrs, route iv; conditions: in vivo
[11] = Clearance in Balb/c mouse at 10 mg/kg, iv measured for 0.08 to 24 hrs by LC-MS/MS analysis; assay type: ADME, organism-based; conditions: in vivo, time 0.08-24 hrs
[12] = Half life in Balb/c mouse at 10 mg/kg, iv measured for 0.08 to 24 hrs by LC-MS/MS analysis; assay type: ADME, organism-based; conditions: in vivo, time 0.08-24 hrs
[13] = AUC (0 to t) in Balb/c mouse at 40 mg/kg, po measured for 0.08 to 24 hrs by LC-MS/MS analysis; assay type: ADME, organism-based; design: time 0.08-24 hrs, dose 40 mg/kg, route po; conditions: in vivo
[14] = AUC (0 to infinity) in Balb/c mouse at 40 mg/kg, po measured for 0.08 to 24 hrs by LC-MS/MS analysis; assay type: ADME, organism-based; design: time 0.08-24 hrs, dose 40 mg/kg, route po; conditions: in vivo
[15] = Half life in Balb/c mouse at 40 mg/kg, po measured for 0.08 to 24 hrs by LC-MS/MS analysis; assay type: ADME, organism-based; conditions: in vivo, time 0.08-24 hrs
[16] = Tmax in Balb/c mouse at 40 mg/kg, po measured for 0.08 to 24 hrs by LC-MS/MS analysis; assay type: ADME, organism-based; conditions: in vivo, time 0.08-24 hrs
Mus musculus [17] = assay: Anti-inflammatory activity in Balb/c mouse model of IMQ-induced skin inflammation assessed as reduction in skin erythema at 20 to 80 mg/kg, po administered daily for 7 days; assay type: functional, organism-based; conditions: dose 20-80 mg/kg, time 7.0 day
Mus musculus [18] = assay: Anti-inflammatory activity in Balb/c mouse model of IMQ-induced skin inflammation assessed as reduction in skin roughness at 20 to 80 mg/kg, po administered daily for 7 days; assay type: functional, organism-based; conditions: dose 20-80 mg/kg, time 7.0 day
Mus musculus [19] = assay: Anti-inflammatory activity in Balb/c mouse model of IMQ-induced skin inflammation assessed as reduction in skin swelling at 20 to 80 mg/kg, po administered daily for 7 days; assay type: functional, organism-based; conditions: dose 20-80 mg/kg, time 7.0 day
Mus musculus [20] = assay: Anti-inflammatory activity in Balb/c mouse model of IMQ-induced skin inflammation assessed as reduction in epidermal thickness of dorsal skin at 40 to 80 mg/kg, po administered daily for 7 days by H and E staining based analysis; assay type: functional, organism-based; conditions: dose 40-80 mg/kg, time 7.0 day
Mus musculus [21] = assay: Anti-inflammatory activity in Balb/c mouse model of IMQ-induced skin inflammation assessed as decrease in Ki67+ cells in dermis of dorsal skin at 80 mg/kg, po administered daily for 7 days by IHC analysis; assay type: functional, organism-based; conditions: time 7.0 day
Mus musculus [22] = assay: Anti-inflammatory activity in Balb/c mouse model of IMQ-induced skin inflammation assessed as decrease in serum IL-17A level at 40 to 80 mg/kg, po administered daily for 7 days by IHC analysis; assay type: functional, organism-based; conditions: dose 40-80 mg/kg, time 7.0 day
Mus musculus [23] = assay: Anti-inflammatory activity in Balb/c mouse model of IMQ-induced skin inflammation assessed as decrease in serum IL-17F level at 80 mg/kg, po administered daily for 7 days by IHC analysis; assay type: functional, organism-based; conditions: time 7.0 day
Mus musculus [24] = assay: Anti-inflammatory activity in Balb/c mouse model of IMQ-induced skin inflammation assessed as decrease in IL-17F mRNA level in dorsal skin at 20 to 40 mg/kg, po administered daily for 7 days by RT-qPCR analysis; assay type: functional, organism-based; conditions: dose 20-40 mg/kg, time 7.0 day
Mus musculus [25] = assay: Anti-inflammatory activity in Balb/c mouse model of IMQ-induced skin inflammation assessed as decrease in IL-22 mRNA level in dorsal skin at 20 to 40 mg/kg, po administered daily for 7 days by RT-qPCR analysis; assay type: functional, organism-based; conditions: dose 20-40 mg/kg, time 7.0 day
Mus musculus [26] = assay: Anti-inflammatory activity in Balb/c mouse model of IMQ-induced skin inflammation assessed as decrease in IL-23 mRNA level in dorsal skin at 20 to 40 mg/kg, po administered daily for 7 days by RT-qPCR analysis; assay type: functional, organism-based; conditions: dose 20-40 mg/kg, time 7.0 day
Mus musculus [27] = assay: Anti-inflammatory activity in Balb/c mouse model of IMQ-induced skin inflammation assessed as decrease in IL-17A mRNA level in dorsal skin at 80 mg/kg, po administered daily for 7 days by RT-qPCR analysis; assay type: functional, organism-based; conditions: time 7.0 day
Mus musculus [28] = assay: Anti-inflammatory activity in Balb/c mouse model of IMQ-induced skin inflammation assessed as decrease in IL-17F mRNA level in dorsal skin at 80 mg/kg, po administered daily for 7 days by RT-qPCR analysis; assay type: functional, organism-based; conditions: time 7.0 day
Mus musculus [29] = assay: Anti-inflammatory activity in Balb/c mouse model of IMQ-induced skin inflammation assessed as decrease in KGF mRNA level in dorsal skin at 40 to 80 mg/kg, po administered daily for 7 days by RT-qPCR analysis; assay type: functional, organism-based; conditions: dose 40-80 mg/kg, time 7.0 day
Mus musculus [30] = assay: Anti-inflammatory activity in Balb/c mouse model of IMQ-induced skin inflammation assessed as decrease in CD3+ T cells in dorsal skin at 20 to 80 mg/kg, po administered daily for 7 days by high power field microscopy; assay type: functional, organism-based; conditions: T-cell, dose 20-80 mg/kg, time 7.0 day
HaCaT [31] = assay: Inhibition of KGF-induced hyperproliferation of human HaCaT cells by plate clone formation assay; assay type: functional, cell-based
HaCaT [32] = assay: Anti-psoriasis effect in KGF-stimulated human HaCaT cells assessed as decrease in N-cadherin level at 2 to 5 uM incubated for 24 hrs by Western blot analysis; assay type: functional, cell-based; conditions: dose 2-5 µM
HaCaT [33] = assay: Anti-psoriasis effect in KGF-stimulated human HaCaT cells assessed as decrease in elastin level at 2 to 5 uM incubated for 24 hrs by Western blot analysis; assay type: functional, cell-based; conditions: dose 2-5 µM
HaCaT [34] = assay: Anti-psoriasis effect in KGF-stimulated human HaCaT cells assessed as decrease in pSTAT3 level at 2 to 5 uM incubated for 24 hrs by Western blot analysis; assay type: functional, cell-based; conditions: dose 2-5 µM

Sequence of Rho-associated protein kinase 1 (Q13464 whole entry): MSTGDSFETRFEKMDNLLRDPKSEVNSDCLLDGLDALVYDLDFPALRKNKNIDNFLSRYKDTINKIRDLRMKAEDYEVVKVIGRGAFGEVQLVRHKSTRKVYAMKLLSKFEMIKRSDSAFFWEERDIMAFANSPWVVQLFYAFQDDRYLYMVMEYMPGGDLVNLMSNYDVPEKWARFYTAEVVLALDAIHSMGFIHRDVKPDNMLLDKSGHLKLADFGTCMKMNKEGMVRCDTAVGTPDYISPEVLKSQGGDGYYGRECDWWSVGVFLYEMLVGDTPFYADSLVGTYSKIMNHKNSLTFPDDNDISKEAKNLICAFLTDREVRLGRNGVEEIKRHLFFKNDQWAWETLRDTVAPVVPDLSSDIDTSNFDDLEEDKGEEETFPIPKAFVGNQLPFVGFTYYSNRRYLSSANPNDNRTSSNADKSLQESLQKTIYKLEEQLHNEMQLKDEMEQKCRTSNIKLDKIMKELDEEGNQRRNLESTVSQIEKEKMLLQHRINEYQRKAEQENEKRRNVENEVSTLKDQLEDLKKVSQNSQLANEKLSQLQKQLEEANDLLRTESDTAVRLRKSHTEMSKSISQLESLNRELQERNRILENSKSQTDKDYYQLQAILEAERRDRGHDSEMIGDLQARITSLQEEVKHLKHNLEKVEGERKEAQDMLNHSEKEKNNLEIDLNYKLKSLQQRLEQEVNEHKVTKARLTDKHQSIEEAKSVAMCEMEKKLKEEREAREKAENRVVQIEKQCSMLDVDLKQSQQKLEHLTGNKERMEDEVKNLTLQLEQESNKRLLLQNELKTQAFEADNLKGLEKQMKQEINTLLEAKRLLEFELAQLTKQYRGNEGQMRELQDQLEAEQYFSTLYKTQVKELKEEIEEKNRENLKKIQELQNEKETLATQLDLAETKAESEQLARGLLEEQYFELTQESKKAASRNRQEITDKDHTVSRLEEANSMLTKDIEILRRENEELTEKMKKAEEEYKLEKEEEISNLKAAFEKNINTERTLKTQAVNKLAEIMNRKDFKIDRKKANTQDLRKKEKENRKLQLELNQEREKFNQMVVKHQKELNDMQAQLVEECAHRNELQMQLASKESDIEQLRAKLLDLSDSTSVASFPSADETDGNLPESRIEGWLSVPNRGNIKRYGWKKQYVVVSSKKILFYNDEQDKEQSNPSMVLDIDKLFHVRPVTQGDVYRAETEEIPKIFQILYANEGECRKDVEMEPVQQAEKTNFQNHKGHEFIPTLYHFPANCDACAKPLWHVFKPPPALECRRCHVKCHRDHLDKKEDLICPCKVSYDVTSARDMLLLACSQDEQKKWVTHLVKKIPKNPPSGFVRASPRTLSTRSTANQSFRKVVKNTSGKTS
Sequence of Rho-associated protein kinase 2 (O75116 whole entry): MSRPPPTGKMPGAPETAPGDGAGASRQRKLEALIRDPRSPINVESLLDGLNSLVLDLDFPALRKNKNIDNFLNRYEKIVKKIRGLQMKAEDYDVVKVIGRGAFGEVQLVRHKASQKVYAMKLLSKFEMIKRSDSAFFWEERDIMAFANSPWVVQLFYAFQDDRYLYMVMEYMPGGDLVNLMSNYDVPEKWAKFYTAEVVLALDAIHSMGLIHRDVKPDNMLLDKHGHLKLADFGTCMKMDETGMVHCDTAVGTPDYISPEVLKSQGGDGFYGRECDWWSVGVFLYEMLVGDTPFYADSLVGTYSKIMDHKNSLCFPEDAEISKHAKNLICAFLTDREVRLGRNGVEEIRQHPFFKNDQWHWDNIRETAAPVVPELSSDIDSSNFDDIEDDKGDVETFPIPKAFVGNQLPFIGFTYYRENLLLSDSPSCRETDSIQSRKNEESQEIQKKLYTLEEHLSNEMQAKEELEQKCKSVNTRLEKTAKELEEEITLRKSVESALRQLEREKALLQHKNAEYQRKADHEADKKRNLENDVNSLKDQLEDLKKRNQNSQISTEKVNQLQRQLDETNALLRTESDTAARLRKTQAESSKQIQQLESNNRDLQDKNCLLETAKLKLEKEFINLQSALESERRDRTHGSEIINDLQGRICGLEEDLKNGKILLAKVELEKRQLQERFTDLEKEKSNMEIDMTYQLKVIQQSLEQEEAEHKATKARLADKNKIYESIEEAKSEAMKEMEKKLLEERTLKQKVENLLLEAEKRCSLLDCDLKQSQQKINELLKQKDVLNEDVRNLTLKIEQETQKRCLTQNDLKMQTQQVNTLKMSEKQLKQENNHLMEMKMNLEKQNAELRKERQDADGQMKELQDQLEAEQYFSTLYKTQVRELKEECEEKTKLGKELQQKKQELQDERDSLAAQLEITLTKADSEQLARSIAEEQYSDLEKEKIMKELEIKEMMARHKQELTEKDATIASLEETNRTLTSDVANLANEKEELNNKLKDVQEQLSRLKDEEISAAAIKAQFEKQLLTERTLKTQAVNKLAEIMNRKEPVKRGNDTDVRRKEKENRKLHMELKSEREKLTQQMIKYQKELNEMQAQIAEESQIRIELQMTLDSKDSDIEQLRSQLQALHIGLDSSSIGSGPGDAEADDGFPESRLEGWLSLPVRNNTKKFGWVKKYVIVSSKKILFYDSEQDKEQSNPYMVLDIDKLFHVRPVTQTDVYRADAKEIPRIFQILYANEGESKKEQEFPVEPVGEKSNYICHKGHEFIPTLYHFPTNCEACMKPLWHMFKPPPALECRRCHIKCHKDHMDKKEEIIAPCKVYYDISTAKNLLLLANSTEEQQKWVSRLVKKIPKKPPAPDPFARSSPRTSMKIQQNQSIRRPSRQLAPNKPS

IC50 [1]: 3.7 nM
IC50 [5]: 71.2 nM
Ratio IC50 [6]: 19
logD [7]: 0.84
solubility [8]: 193 µg/mL (≈ 433 µM)
AUC(0-t) [9]: 1040 ng·h/mL
AUC(0-inf) [10]: 1060 ng·h/mL
clearance [11]: 158 mL/min/kg
half-life [12]: 119 min
AUC(0-t) [13]: 300 ng·h/mL
AUC(0-inf) [14]: 302 ng·h/mL
half-life [15]: 75.6 min
Tmax [16]: 15 min
SMILES: Cc1cc(=O)n(-c2cccc(CN[C@H]3CCC[C@H](Nc4ccc5[nH]ncc5c4)C3)c2)cc1F
Activity (Mus musculus [2]): Active
Activity (Mus musculus [3]): Active
Activity (Mus musculus [4]): Dose-Dependent Effect
Activity (Mus musculus [17]): Active
Activity (Mus musculus [18]): Active
Activity (Mus musculus [19]): Active
Activity (Mus musculus [20]): Active
Activity (Mus musculus [21]): Active
Activity (Mus musculus [22]): Active
Activity (Mus musculus [23]): inactive
Activity (Mus musculus [24]): Active
Activity (Mus musculus [25]): Active
Activity (Mus musculus [26]): Active
Activity (Mus musculus [27]): Active
Activity (Mus musculus [28]): inactive
Activity (Mus musculus [29]): Active
Activity (Mus musculus [30]): Active
inhibition (HaCaT [31]): Active
Activity (HaCaT [32]): Active
Activity (HaCaT [33]): Active
Activity (HaCaT [34]): Active
